# Patent EP0908457B1, “3-(1,2-benzisothiazol- and isoxazol-5-Y1)-2,4(1H,3H)-pyrimidinedione or thione and 3-(1,2-benzisothiazol- and isoxazol-5-y1)-4(3H)-pyrimidinone or thione herbicidal agents” (BASF AKTIENGESELLSCHAFT, priority 1997, dated 1999)
# Legend:
# [1] = tested on: Echinochloa oryzoides (Ard.) Fritsch.; assay: Preemergence weed control under flooded paddy conditions, ECHORC (Watergrass (Calif.)); format: in vivo; details: flooded paddy, rated three to four weeks after treatment
# [2] = tested on: Cyperus iria; assay: Preemergence weed control under flooded paddy conditions, CYPIR (Rice Flatsedge); format: in vivo; details: flooded paddy, rated three to four weeks after treatment
# [3] = tested on: Monochoria vaginalis, Presl.; assay: Preemergence weed control under flooded paddy conditions, MOOVA (Monochoria); format: in vivo; details: flooded paddy, rated three to four weeks after treatment
# [4] = tested on: Sagittaria pygmaea, L.; assay: Preemergence weed control under flooded paddy conditions, SAGPY (Arrowhead (Pygmaea)); format: in vivo; details: flooded paddy, rated three to four weeks after treatment
# [5] = tested on: Oryza sativa, (L.) Tebonnet; assay: Rice tolerance to post-transplant applications under flooded paddy conditions (Example 187), ORYSAT (Rice, Tebonnet); details: rated three to four weeks after treatment
# [6] = Rate 0.0320 kg/ha, preemergence weeds
# [7] = Rate 0.0620 kg/ha, preemergence weeds
# [8] = Rate 0.1250 kg/ha, preemergence weeds
# [9] = Rate 0.2500 kg/ha, preemergence weeds
# [10] = Rate 0.0320 kg/ha, preemergence
# [11] = Rate 0.0620 kg/ha, preemergence
# [12] = Rate 0.1250 kg/ha, preemergence
# [13] = Rate 0.2500 kg/ha, preemergence
# [14] = Rate 0.5000 kg/ha, preemergence
# Also: meaning of each grade not given here.
smiles,measurement,setting,value
"CNC.Cn1c(C(F)(F)F)cc(=O)n(-c2ccc3snc(CSCC(=O)NS(C)(=O)=O)c3c2)c1=O [Example 298, Acetamide, 2-{{{5-[3,6-dihydro-3-methyl-2,6-dioxo-4-(trifluoromethyl)-1(2H)-pyrimidinyl]-1,2-benzisothiazol-3-yl}methyl}thio}-N-(methylsulfonyl)-, dimethylamine salt]","herbicidal effect rating, ECHORC",[1]; [6],0.0
same,"herbicidal effect rating, ECHORC",[1]; [7],0.0
same,"herbicidal effect rating, ECHORC",[1]; [8],0.0
same,"herbicidal effect rating, ECHORC",[1]; [9],3.0
same,"herbicidal effect rating, CYPIR",[2]; [6],3.0
same,"herbicidal effect rating, CYPIR",[2]; [7],9.0
same,"herbicidal effect rating, CYPIR",[2]; [8],9.0
same,"herbicidal effect rating, CYPIR",[2]; [9],9.0
same,"herbicidal effect rating, MOOVA",[3]; [6],9.0
same,"herbicidal effect rating, MOOVA",[3]; [7],9.0
same,"herbicidal effect rating, MOOVA",[3]; [8],9.0
same,"herbicidal effect rating, MOOVA",[3]; [9],9.0
same,"herbicidal effect rating, SAGPY",[4]; [6],0.0
same,"herbicidal effect rating, SAGPY",[4]; [7],0.0
same,"herbicidal effect rating, SAGPY",[4]; [8],3.0
same,"herbicidal effect rating, SAGPY",[4]; [9],9.0
same,herbicidal effect rating ORYSAT,[5]; Rate 0.0320 kg/ha,0.0
same,herbicidal effect rating ORYSAT,[5]; Rate 0.0620 kg/ha,0.0
same,herbicidal effect rating ORYSAT,[5]; Rate 0.1250 kg/ha,0.0
same,herbicidal effect rating ORYSAT,[5]; Rate 0.2500 kg/ha,0.0
"Cn1c(C(F)(F)F)cc(=O)n(-c2ccc3snc(C(=O)Oc4ccc(F)cc4)c3c2)c1=O [Example 320, 1,2-Benzisothiazole-3-carboxylic acid, 5-[3,6-dihydro-3-methyl-2,6-dioxo-4-(trifluoromethyl)-1(2H)-pyrimidinyl]-, p-fluorophenyl ester]","herbicidal effect rating, ECHORC",[1]; [6],0.0
same,"herbicidal effect rating, ECHORC",[1]; [7],0.0
same,"herbicidal effect rating, ECHORC",[1]; [8],0.0
same,"herbicidal effect rating, ECHORC",[1]; [9],2.5
same,"herbicidal effect rating, CYPIR",[2]; [6],0.0
same,"herbicidal effect rating, CYPIR",[2]; [7],2.0
same,"herbicidal effect rating, CYPIR",[2]; [8],5.5
same,"herbicidal effect rating, CYPIR",[2]; [9],8.0
same,"herbicidal effect rating, MOOVA",[3]; [6],0.0
same,"herbicidal effect rating, MOOVA",[3]; [7],0.0
same,"herbicidal effect rating, MOOVA",[3]; [8],3.0
same,"herbicidal effect rating, MOOVA",[3]; [9],9.0
same,"herbicidal effect rating, SAGPY",[4]; [6],1.0
same,"herbicidal effect rating, SAGPY",[4]; [7],2.5
same,"herbicidal effect rating, SAGPY",[4]; [8],2.5
same,"herbicidal effect rating, SAGPY",[4]; [9],5.0
same,herbicidal effect rating ORYSAT,[5]; Rate 0.0320 kg/ha,1.5
same,herbicidal effect rating ORYSAT,[5]; Rate 0.0620 kg/ha,2.0
same,herbicidal effect rating ORYSAT,[5]; Rate 0.1250 kg/ha,2.0
same,herbicidal effect rating ORYSAT,[5]; Rate 0.2500 kg/ha,2.5
"Cn1c(C(F)(F)F)cc(=O)n(-c2ccc3snc(CSCC(=O)NS(C)(=O)=O)c3c2)c1=O [Example 297, Acetamide, 2-{{{5-[3,6-dihydro-3-methyl-2,6-dioxo-4-(trifluoromethyl)-1(2H)-pyrimidinyl]-1,2-benzisothiazol-3-yl}methyl}thio}-N-(methylsulfonyl)-]","herbicidal effect rating, ECHORC",[1]; [6],0.0
same,"herbicidal effect rating, ECHORC",[1]; [7],0.0
same,"herbicidal effect rating, ECHORC",[1]; [8],3.0
same,"herbicidal effect rating, ECHORC",[1]; [9],4.0
same,"herbicidal effect rating, CYPIR",[2]; [6],4.0
same,"herbicidal effect rating, CYPIR",[2]; [7],5.0
same,"herbicidal effect rating, CYPIR",[2]; [8],7.0
same,"herbicidal effect rating, CYPIR",[2]; [9],9.0
same,"herbicidal effect rating, MOOVA",[3]; [6],9.0
same,"herbicidal effect rating, MOOVA",[3]; [7],9.0
same,"herbicidal effect rating, MOOVA",[3]; [8],9.0
same,"herbicidal effect rating, MOOVA",[3]; [9],9.0
same,"herbicidal effect rating, SAGPY",[4]; [6],0.0
same,"herbicidal effect rating, SAGPY",[4]; [7],0.0
same,"herbicidal effect rating, SAGPY",[4]; [8],3.0
same,"herbicidal effect rating, SAGPY",[4]; [9],9.0
same,herbicidal effect rating ORYSAT,[5]; Rate 0.0320 kg/ha,0.0
same,herbicidal effect rating ORYSAT,[5]; Rate 0.0620 kg/ha,0.0
same,herbicidal effect rating ORYSAT,[5]; Rate 0.1250 kg/ha,0.0
same,herbicidal effect rating ORYSAT,[5]; Rate 0.2500 kg/ha,2.0
"COc1ccc(O)c(-c2nsc3ccc(-n4c(=O)cc(C(F)(F)F)n(C)c4=O)cc23)c1 [Example 361, 2,4(1H,3H)-Pyrimidinedione, 3-[3-(2-hydroxy-5-methoxyphenyl)-1,2-benzisothiazol-5-yl]-1-methyl-6-(trifluoromethyl)-]","herbicidal effect rating, ECHORC",[1]; [10],0.0
same,"herbicidal effect rating, ECHORC",[1]; [11],0.0
same,"herbicidal effect rating, ECHORC",[1]; [12],0.0
same,"herbicidal effect rating, ECHORC",[1]; [13],4.0
same,"herbicidal effect rating, ECHORC",[1]; [14],4.0
same,"herbicidal effect rating, CYPIR",[2]; [10],0.0
same,"herbicidal effect rating, CYPIR",[2]; [11],0.0
same,"herbicidal effect rating, CYPIR",[2]; [12],0.0
same,"herbicidal effect rating, CYPIR",[2]; [13],6.0
same,"herbicidal effect rating, CYPIR",[2]; [14],6.0
same,"herbicidal effect rating, MOOVA",[3]; [10],9.0
same,"herbicidal effect rating, MOOVA",[3]; [11],9.0
same,"herbicidal effect rating, MOOVA",[3]; [12],9.0
same,"herbicidal effect rating, MOOVA",[3]; [13],9.0
same,"herbicidal effect rating, MOOVA",[3]; [14],9.0
same,"herbicidal effect rating, SAGPY",[4]; [10],4.0
same,"herbicidal effect rating, SAGPY",[4]; [11],4.0
same,"herbicidal effect rating, SAGPY",[4]; [12],5.0
same,"herbicidal effect rating, SAGPY",[4]; [13],5.0
same,"herbicidal effect rating, SAGPY",[4]; [14],5.0
same,herbicidal effect rating ORYSAT,[5]; Rate 0.0320 kg/ha,0.0
same,herbicidal effect rating ORYSAT,[5]; Rate 0.0620 kg/ha,0.0
same,herbicidal effect rating ORYSAT,[5]; Rate 0.1250 kg/ha,4.0
same,herbicidal effect rating ORYSAT,[5]; Rate 0.2500 kg/ha,5.0
same,herbicidal effect rating ORYSAT,[5]; Rate 0.5000 kg/ha,3.0
